Assay results published in patent US20230398098A1, “TOPICAL DETOMIDINE FORMULATIONS” (Clexio Biosciences Ltd., priority 2020, published 2023).
Where a name gives a salt, the structure may show the parent alone.

Tests used:
Assay type in all cases: physicochemical
[1] = Hydration study of solid forms by DVS analysis
Protocol: Melting points (m.p.) of the intermediate detomidine free base and hydrochloride of Sample 5 measured in open capillary corresponded with the published literature and the DSC data and are presented in Table 4. In order to evaluate effect of humidity on different forms of detomidine, a hydration study was performed. Samples of detomidine free base and hydrochloride salt were subjected to DVS analysis. These observations are in accordance with the DVS results shown in FIGS. 1 and 2, for detomidine free base and detomidine HCl, respectively.
During the dehydration cycle, the monohydrate began to lose water at RH˜10% and converted into the anhydrate at RH=0%.

[2] = Aldehyde impurity assessment: aqueous stock solutions exposed to air, HPLC of RRT = 0.38; settings: 7.4 wt % detomidine HCl in water; for RRT = 0.38 content at 2 years: exposed to air at room temperature; for Initial RRT = 0.38 content: time zero
Protocol: Therefore, for further identification of the elusive impurity, new HPLC protocols for assaying detomidine HCl were developed. One protocol (“HPLC Protocol A”) comprised using a SunFire C8 column, 100Å, 3.5 μm, 4.6×150 mm column with an initial mobile phase of 70% Ammonium Phosphate buffer solution, pH 7.9 and 30% Acetonitrile, at a flow rate of 1.0 mL/min and UV detection at 220 nm. To remove late eluting peaks, the flush gradient shown in Table 5 was applied after each run. This HPLC protocol allowed for a resolution factor of 3.9 between detomidine and the unidentified impurity. The quantitation level (QL) for impurities and degradation products is 0.025%. The detection level (DL) for impurities and degradation products is 0.01%.
Stock solutions of 7.4 wt % detomidine HCl in water were prepared using material from Table 6, Batch #iv and v and the samples were then kept exposed to air at room temperature for 2 years.

[3] = Solubility of solid forms in water (observation)
[4] = Oxidation with potassium permanganate in aqueous solution, HPLC of RRT = 0.38; settings: 3 hours after solution preparation
Protocol: A further sample of material from Table 6, Batch #v was reacted with potassium permanganate in aqueous solution. RRT=0.38 was found in the reaction product at 0.14% at 3 hours after solution preparation.

Question: For `Cc1cccc(Cc2c[nH]cn2)c1C` [anhydrous detomidine HCl], which “RH at which the anhydrate absorbs water / transforms completely into the monohydrate” value ([1]; DVS) is on record?
Answer: The value was 30-50%.

Question: What about the “RH at which the anhydrate did not absorb water” value ([1]; DVS) of the same compound?
Answer: Its value is < 30%.

Question: With `Cc1cccc(Cc2cnc[nH]2)c1C.Cl.O` [Batch iv] as the compound, how does the “RRT = 0.38 content at 2 years” value ([2]; listed as iv) read?
Answer: Its value is 1%.

Question: What about the “Initial RRT = 0.38 content” value ([2]; listed as iv) of the same compound?
Answer: The value was 0.2%.

Question: With `Cc1cccc(Cc2c[nH]cn2)c1C` [detomidine HCl monohydrate] as the compound, how does the “RH at which the monohydrate began to lose water” value ([1]; dehydration cycle, DVS) read?
Answer: The value was ~10%.

Question: What about the “RH at which the monohydrate converted into the anhydrate” value ([1]; dehydration cycle, DVS) of the same compound?
Answer: The value was 0%.

Question: For `Cc1cccc(Cc2c[nH]cn2)c1C` [detomidine hydrochloride], which solubility in water [3] is on record?
Answer: Its solubility in water is “soluble”.

Question: With `Cc1cccc(Cc2c[nH]cn2)c1C` [detomidine free base, 4-[(2,3-dimethylphenyl)methyl]-1H-Imidazole] as the compound, how does the hygroscopicity ([1]; DVS, 24.4° C. (FIG. 1)) read?
Answer: Its hygroscopicity is “non-hygroscopic”.

Question: And the water absorbed ([1]; at relative humidity (RH)>50%)?
Answer: The water absorbed was “more than 1%”.

Question: And the solubility in water [3]?
Answer: The solubility in water was “insoluble in water”.

Question: Which “water level absorbed, cKF” value ([1]; hydration of the anhydrous form) does the source give for `Cc1cccc(Cc2c[nH]cn2)c1C.Cl` [Sample 2] here?
Answer: Its value is 7.7%.

Question: With `Cc1cccc(Cc2cnc[nH]2)c1C.Cl.O` [Batch v] as the compound, how does the “RRT = 0.38 content at 2 years” value ([2]; listed as v) read?
Answer: The value was 0.02%.

Question: And the “Initial RRT = 0.38 content” value ([2]; listed as v)?
Answer: The value was “not detectable”.

Question: What about the “RRT=0.38 in the reaction product” value [4] of the same compound?
Answer: Its value is 0.14%.
